Laboratory results from patent publication US10004701B2, “Methods and compositions for treating infection” (UNIVERSITY OF ROCHESTER, priority 2012, dated 2018).
Where a name gives a salt, the structure may show the parent alone. Read-outs that look alike come from different tables or passages of the source.

Tests used:
Experiment in all cases: AK assay 384-well format, Prestwick library screening
[1] = system: K. pneumoniae; type: cell-based, Klebsiella pneumoniae; conditions: 50 μM final drug concentration; for fold induction at 50 µM: Klebsiella pneumoniae, 3 h
[2] = system: A. baumannii strain 98-37-09; type: cell-based, Acinetobacter baumannii; conditions: 50 μM final drug concentration; for fold induction at 50 µM: Acinetobacter baumannii, 983709, 3 h
[3] = system: E. faecium; type: cell-based, Enterococcus faecium; conditions: 50 μM final drug concentration; for fold induction at 50 µM: Enterococcus faecium, 3 h
[4] = system: E. coli; type: cell-based, Escherichia coli; conditions: 50 μM final drug concentration; for fold induction at 50 µM: Escherichia coli, 3 h
[5] = system: S. aureus strain USA300-0114; type: cell-based, Staphylococcus aureus; conditions: 50 μM final drug concentration; for fold induction at 50 µM: Staphylococcus aureus, USA300, 3 h
[6] = system: E. cloacae; type: cell-based, Enterobacter cloacae; conditions: 50 μM final drug concentration; for fold induction at 50 µM: Enterobacter cloacae, 3 h
[7] = system: P. aeruginosa; type: cell-based, Pseudomonas aeruginosa; conditions: 50 μM final drug concentration; for fold induction at 50 µM: Pseudomonas aeruginosa, 3 h
[8] = planktonic K. pneumoniae, 384-well, cutoff for positive-scoring molecules 3-fold increase, read-out: AK-based Prestwick Library Screening Results: K. pneumoniae (increase in extracellular AK activity)
[9] = planktonic A. baumannii, 384-well, cutoff for positive-scoring molecules 3-fold increase, read-out: AK-based Prestwick Library Screening Results: A. baumannii (increase in extracellular AK activity)
[10] = planktonic E. faecium, 384-well, cutoff for positive-scoring molecules 3-fold increase, read-out: AK-based Prestwick Library Screening Results: E. faecium (increase in extracellular AK activity)
[11] = planktonic E. coli, 384-well, cutoff for positive-scoring molecules 3-fold increase, read-out: AK-based Prestwick Library Screening Results: E. coli (increase in extracellular AK activity)
[12] = planktonic S. aureus, 384-well, cutoff for positive-scoring molecules 3-fold increase, read-out: AK-based Prestwick Library Screening Results: S. aureus (increase in extracellular AK activity)
[13] = planktonic E. cloacae, 384-well, cutoff for positive-scoring molecules 3-fold increase, read-out: AK-based Prestwick Library Screening Results: E. cloacae (increase in extracellular AK activity)
[14] = planktonic P. aeruginosa, 384-well, cutoff for positive-scoring molecules 3-fold increase, read-out: AK-based Prestwick Library Screening Results: P. aeruginosa (increase in extracellular AK activity)
[15] = cutoff for positive-scoring molecules 3-fold increase, read-out: AK-based Prestwick Library Screening Results, K. pneumoniae (fold increase in extracellular AK activity)
[16] = cutoff for positive-scoring molecules 3-fold increase, read-out: AK-based Prestwick Library Screening Results, A. baumannii (fold increase in extracellular AK activity)
[17] = cutoff for positive-scoring molecules 3-fold increase, read-out: AK-based Prestwick Library Screening Results, E. faecium (fold increase in extracellular AK activity)
[18] = cutoff for positive-scoring molecules 3-fold increase, read-out: AK-based Prestwick Library Screening Results, E. coli (fold increase in extracellular AK activity)
[19] = cutoff for positive-scoring molecules 3-fold increase, read-out: AK-based Prestwick Library Screening Results, S. aureus (fold increase in extracellular AK activity)
[20] = cutoff for positive-scoring molecules 3-fold increase, read-out: AK-based Prestwick Library Screening Results, E. cloacae (fold increase in extracellular AK activity)
[21] = cutoff for positive-scoring molecules 3-fold increase, read-out: AK-based Prestwick Library Screening Results, P. aeruginosa (fold increase in extracellular AK activity)
[22] = planktonic K. pneumoniae, cutoff for positive-scoring molecules 3-fold increase, read-out: AK-based Prestwick Library Screening Results, K. pneumoniae (increase in extracellular AK activity)
[23] = planktonic A. baumannii, cutoff for positive-scoring molecules 3-fold increase, read-out: AK-based Prestwick Library Screening Results, A. baumannii (increase in extracellular AK activity)
[24] = planktonic E. faecium, cutoff for positive-scoring molecules 3-fold increase, read-out: AK-based Prestwick Library Screening Results, E. faecium (increase in extracellular AK activity)
[25] = planktonic E. coli, cutoff for positive-scoring molecules 3-fold increase, read-out: AK-based Prestwick Library Screening Results, E. coli (increase in extracellular AK activity)
[26] = planktonic S. aureus, cutoff for positive-scoring molecules 3-fold increase, read-out: AK-based Prestwick Library Screening Results, S. aureus (increase in extracellular AK activity)
[27] = planktonic E. cloacae, cutoff for positive-scoring molecules 3-fold increase, read-out: AK-based Prestwick Library Screening Results, E. cloacae (increase in extracellular AK activity)
[28] = planktonic P. aeruginosa, cutoff for positive-scoring molecules 3-fold increase, read-out: AK-based Prestwick Library Screening Results, P. aeruginosa (increase in extracellular AK activity)

`CN(C)[C@@H]1C(O)=C(C(N)=O)C(=O)[C@@]2(O)C(O)=C3C(=O)c4c(O)ccc(Cl)c4[C@@](C)(O)[C@H]3C[C@@H]12` [Chlortetracycline hydrochloride] showed a fold induction at 50 µM [1, 8] of 0.2, a fold induction at 50 µM [2, 9] of 3.9 and a fold induction at 50 µM [3, 10] of 0.9. It also gave a fold induction at 50 µM [4, 11] of 0.8, a fold induction at 50 µM [5, 12] of 6.8 and a fold induction at 50 µM [6, 13] of 1. For the same molecule, the fold induction at 50 µM [7, 14] was 0.7.
`COc1ccc(-c2cc(=O)c3c(O)cc(O)cc3o2)cc1` [Acacetin] gave a fold induction at 50 µM [1, 15] of 0.6, a fold induction at 50 µM [2, 16] of 0.3 and a fold induction at 50 µM [3, 17] of 0.5. The fold induction at 50 µM [4, 18] was 0.7, the fold induction at 50 µM [5, 19] was 0.7 and the fold induction at 50 µM [6, 20] was 1.6. The fold induction at 50 µM [7, 21] was 0.6.
`COc1cc(C(=O)OC2CC3CCC(C2)N3C)ccc1O` (centres unmarked) [Fillalbin] gave a fold induction at 50 µM [1, 15] of 0.8, a fold induction at 50 µM [2, 16] of 0.9 and a fold induction at 50 µM [3, 17] of 1. It also gave a fold induction at 50 µM [4, 18] of 1.2, a fold induction at 50 µM [5, 19] of 1 and a fold induction at 50 µM [6, 20] of 1.8. For the same molecule, the fold induction at 50 µM [7, 21] was 1.2.
In the case of `CNC(=O)Oc1ccc2c(c1)[C@]1(C)CCN(C)[C@@H]1N2C.CNC(=O)Oc1ccc2c(c1)[C@]1(C)CCN(C)[C@@H]1N2C.O=S(=O)(O)O` [Eserine sulfate, physostigmine sulfate], the “AK-based Prestwick Library Screening Results, K. pneumoniae (increase in extracellular AK activity)” value ([1]; planktonic K. pneumoniae, […]) is reported as 0.5, the “AK-based Prestwick Library Screening Results, A. baumannii (increase in extracellular AK activity)” value ([2]; planktonic A. baumannii, […]) is reported as 0.5 and the “AK-based Prestwick Library Screening Results, E. faecium (increase in extracellular AK activity)” value ([3]; planktonic E. faecium, […]) is reported as 0.9. The “AK-based Prestwick Library Screening Results, E. coli (increase in extracellular AK activity)” value ([4]; planktonic E. coli, […]) was 0.7, the “AK-based Prestwick Library Screening Results, S. aureus (increase in extracellular AK activity)” value ([5]; planktonic S. aureus, […]) was 0.4 and the “AK-based Prestwick Library Screening Results, E. cloacae (increase in extracellular AK activity)” value ([6]; planktonic E. cloacae, […]) was 0.7. The “AK-based Prestwick Library Screening Results, P. aeruginosa (increase in extracellular AK activity)” value ([7]; planktonic P. aeruginosa, […]) was 0.6.
`CC1(C)S[C@@H]2[C@H](NC(=O)[C@H](N)c3ccc(O)cc3)C(=O)N2[C@H]1C(=O)O` [Amoxicillin] showed a fold induction at 50 µM [1, 22] of 0.7, a fold induction at 50 µM [2, 23] of 1.7 and a fold induction at 50 µM [3, 24] of 1.4. For the same molecule, the fold induction at 50 µM [4, 25] was 10.6, the fold induction at 50 µM [5, 26] was 0.4 and the fold induction at 50 µM [6, 27] was 1. For the same molecule, the fold induction at 50 µM [7, 28] was 0.7.
Work on `COc1ccc(CC2c3cc(OC)c(OC)cc3CC[N+]2(C)CCC(=O)OCCCCCOC(=O)CC[N+]2(C)CCc3cc(OC)c(OC)cc3C2Cc2ccc(OC)c(OC)c2)cc1OC` (centres unmarked) [Atracurium besylate] yielded a fold induction at 50 µM ([1]; 384-well format, cutoff for positive-scoring molecules 3-fold increase, read-out: AK-based Prestwick Library Screening Results, K. pneumoniae (increase in extracellular AK activity)) of 0.5, a fold induction at 50 µM ([2]; 384-well format, cutoff for positive-scoring molecules 3-fold increase, read-out: AK-based Prestwick Library Screening Results, A. baumannii (increase in extracellular AK activity)) of 0.4 and a fold induction at 50 µM ([3]; 384-well format, cutoff for positive-scoring molecules 3-fold increase, read-out: AK-based Prestwick Library Screening Results, E. faecium (increase in extracellular AK activity)) of 0.8. For the same molecule, the fold induction at 50 µM ([4]; 384-well format, cutoff for positive-scoring molecules 3-fold increase, read-out: AK-based Prestwick Library Screening Results, E. coli (increase in extracellular AK activity)) was 0.5, the fold induction at 50 µM ([5]; 384-well format, cutoff for positive-scoring molecules 3-fold increase, read-out: AK-based Prestwick Library Screening Results, S. aureus (increase in extracellular AK activity)) was 0.5 and the fold induction at 50 µM ([6]; 384-well format, cutoff for positive-scoring molecules 3-fold increase, read-out: AK-based Prestwick Library Screening Results, E. cloacae (increase in extracellular AK activity)) was 0.3. The fold induction at 50 µM ([7]; 384-well format, cutoff for positive-scoring molecules 3-fold increase, read-out: AK-based Prestwick Library Screening Results, P. aeruginosa (increase in extracellular AK activity)) was 0.4.
Molecule `CC(NCCc1ccc(O)cc1)C(O)c1ccc(O)cc1` (centres unmarked) [Ritodrine hydrochloride] has a fold induction at 50 µM [1, 22] of 0.7, a fold induction at 50 µM [2, 23] of 0.8 and a fold induction at 50 µM [3, 24] of 0.9. For the same molecule, the fold induction at 50 µM [4, 25] was 0.8, the fold induction at 50 µM [5, 26] was 0.5 and the fold induction at 50 µM [6, 27] was 0.9. For the same molecule, the fold induction at 50 µM [7, 28] was 0.9.
Molecule `NS(=O)(=O)c1cc(C(=O)O)cc(N2CCCC2)c1Oc1ccccc1` [Piretanide] has a fold induction at 50 µM [1, 15] of 0.5, a fold induction at 50 µM [2, 16] of 0.4 and a fold induction at 50 µM [3, 17] of 0.8. It also gave a fold induction at 50 µM [4, 18] of 0.5, a fold induction at 50 µM [5, 19] of 0.4 and a fold induction at 50 µM [6, 20] of 0.4. It also gave a fold induction at 50 µM [7, 21] of 0.4.
In the case of `O=C(O)CCCc1ccc(N(CCCl)CCCl)cc1` [Chlorambucil], the fold induction at 50 µM ([1]; planktonic K. pneumoniae, […], read-out: AK-based Prestwick library screening result, K. pneumoniae (fold increase in extracellular AK activity)) is reported as 0.7, the fold induction at 50 µM ([2]; planktonic A. baumannii, […], read-out: AK-based Prestwick library screening result, A. baumannii (fold increase in extracellular AK activity)) is reported as 0.9 and the fold induction at 50 µM ([3]; planktonic E. faecium, […], read-out: AK-based Prestwick library screening result, E. faecium (fold increase in extracellular AK activity)) is reported as 0.9. It also gave a fold induction at 50 µM ([4]; planktonic E. coli, […], read-out: AK-based Prestwick library screening result, E. coli (fold increase in extracellular AK activity)) of 0.9, a fold induction at 50 µM ([5]; planktonic S. aureus, […], read-out: AK-based Prestwick library screening result, S. aureus (fold increase in extracellular AK activity)) of 0.8 and a fold induction at 50 µM ([6]; planktonic E. cloacae, […], read-out: AK-based Prestwick library screening result, E. cloacae (fold increase in extracellular AK activity)) of 1.2. For the same molecule, the fold induction at 50 µM ([7]; planktonic P. aeruginosa, […], read-out: AK-based Prestwick library screening result, P. aeruginosa (fold increase in extracellular AK activity)) was 0.8.
`CCCCOc1cc(C(=O)NCCN(CC)CC)c2ccccc2n1` [Dibucaine] showed a fold induction at 50 µM [1, 8] of 1.1, a fold induction at 50 µM [2, 9] of 1.3 and a fold induction at 50 µM [3, 10] of 0.9. The fold induction at 50 µM [4, 11] was 1.3, the fold induction at 50 µM [5, 12] was 1.3 and the fold induction at 50 µM [6, 13] was 1.7. It also gave a fold induction at 50 µM [7, 14] of 1.1.
Molecule `CC(Cc1cccc(C(F)(F)F)c1)NCCOC(=O)c1ccccc1` (centres unmarked) [Benfluorex hydrochloride] has a fold induction at 50 µM [1, 22] of 1.1, a fold induction at 50 µM [2, 23] of 1 and a fold induction at 50 µM [3, 24] of 0.9. The fold induction at 50 µM [4, 25] was 1.4, the fold induction at 50 µM [5, 26] was 1.2 and the fold induction at 50 µM [6, 27] was 1.4. It also gave a fold induction at 50 µM [7, 28] of 1.1.
